One may read the IC50 as the concentration needed to halve the response being measured. The inhibition is the percentage by which the read-out fell short of the control.

For one experiment, the target named is T1, rat NaPi-2b (Rattus norvegicus, UniProt Q9JJ09).
T1 construct: expressed in transfected cells; host or cells: Xenopus oocytes injected with cRNA
T1 sequence (Q9JJ09 1-695): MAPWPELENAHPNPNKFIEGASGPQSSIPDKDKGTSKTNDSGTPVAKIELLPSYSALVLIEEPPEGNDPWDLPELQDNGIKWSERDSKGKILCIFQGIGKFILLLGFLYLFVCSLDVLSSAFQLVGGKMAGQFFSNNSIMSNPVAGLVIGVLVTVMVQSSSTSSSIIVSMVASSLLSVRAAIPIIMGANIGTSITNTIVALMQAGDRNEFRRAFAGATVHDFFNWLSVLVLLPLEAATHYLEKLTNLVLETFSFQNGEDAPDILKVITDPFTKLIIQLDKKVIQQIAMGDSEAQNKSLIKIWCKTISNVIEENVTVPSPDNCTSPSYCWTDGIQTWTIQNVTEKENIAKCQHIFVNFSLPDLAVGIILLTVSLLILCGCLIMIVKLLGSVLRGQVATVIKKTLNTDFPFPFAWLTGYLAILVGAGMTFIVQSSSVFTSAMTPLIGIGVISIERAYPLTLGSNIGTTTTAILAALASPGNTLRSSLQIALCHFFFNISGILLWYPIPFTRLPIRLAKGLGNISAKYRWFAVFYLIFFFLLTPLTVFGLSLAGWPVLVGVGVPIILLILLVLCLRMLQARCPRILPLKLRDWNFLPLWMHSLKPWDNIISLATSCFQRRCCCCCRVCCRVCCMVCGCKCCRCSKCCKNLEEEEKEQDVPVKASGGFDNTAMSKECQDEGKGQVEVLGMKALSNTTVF
Kind of experiment: Sodium-dependent phosphate uptake of Xenopus oocytes which expressed NaPi-2b (32P). It is filed as cell-based. The settings on record: Xenopus oocytes expressing rat NaPi-2b, 32P radioactive phosphorus; read-out: IC50 (phosphate uptake inhibitory activity). The method, boiled down:
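Rat small-intestine NaPi-2b cRNA injected into Xenopus oocytes, expressed for 2 days. Sodium-dependent phosphate uptake measured with 32P; % inhibition at 300 and 100 μM taken from the same inhibition curve.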
Consider `COc1ccc(C(=O)Nc2ccc(Cl)cc2C(=O)N/N=C/c2cccnc2)cc1OC` [Compound 111, N-[4-Chloro-2-(pyridin-3-ylmethylene-hydrazinocarbonyl)-phenyl]-3,4-dimethoxy-benzamide], for which the IC50 is 9.12 µM.

Take `CCN(CC)CCN(C)Cc1cccc(C(=O)Nc2scc(C)c2C(=O)N/N=C/c2ccc(C)cc2)c1` [Compound 564, 3-{[(2-Diethylamino-ethyl)-methyl-amino]-methyl}-N-[4-methyl-3-(4-methyl-benzylidene-hydrazinocarbonyl)-thiophen-2-yl]-benzamide]: the IC50 turned out to be 11.6 µM.

For `Cc1ccc(/C=N/NC(=O)c2c(C)csc2NC(=O)c2cccc(CSCCCO)c2)cc1` [Compound 558, 3-(3-Hydroxy-propylsulfanylmethyl)-N-[4-methyl-3-(4-methyl-benzylidene-hydrazinocarbonyl)-thiophen-2-yl]-benzamide], the IC50 came out at 1.07 µM.

On to `COCCOc1cc(NC(=O)c2cccc(CSCC(O)CO)c2)c(C(=O)N/N=C/c2ccc(C)c(C)c2)cc1OCCOC` (stereo not drawn) [Compound 1015, 3-(2,3-Dihydroxy-propylsulfanylmethyl)-N-[2-(3,4-dimethyl-benzylidene-hydrazinocarbonyl)-4,5-bis-(2-methoxy-ethoxy)-phenyl]-benzamide], for which the IC50 was determined as 11.1 µM.

As for `CCN(CC)CCN(C)Cc1cccc(C(=O)Nc2ccc(I)cc2C(=O)N/N=C/c2ccc(C)cc2)c1` [Compound 475, 3-{[(2-Diethylamino-ethyl)-methyl-amino]-methyl}-N-[4-iodo-2-(4-methyl-benzylidene-hydrazinocarbonyl)-phenyl]-benzamide], the IC50 is less than 3 µM.

Regarding `COc1ccc(NC(=O)c2ccc(OC)c(OC)c2)c(C(=O)N/N=C/c2cccc(C)c2)c1` [Compound 143, 3,4-Dimethoxy-N-[4-methoxy-2-(3-methyl-benzylidene-hydrazinocarbonyl)-phenyl]-benzamide], the concentration for half-maximal inhibition (IC50) amounted to 5.88 µM.

On to `CCN(CC)CCN(C)Cc1cccc(C(=O)Nc2ccc(OCCOCCOC)cc2C(=O)N/N=C/c2cccc(F)c2)c1` [Compound 1033, 3-{[(2-Diethylamino-ethyl)-methyl-amino]-methyl}-N-{2-(3-fluoro-benzylidene-hydrazinocarbonyl)-4-[2-(2-methoxy-ethoxy)-ethoxy]-phenyl}-benzamide], for which the IC50 amounted to 18.7 µM.

As for `Cc1ccc(/C=N/NC(=O)c2c(C)csc2NC(=O)c2cccc(CN3CCC(CO)CC3)c2)cc1` [Compound 600, 3-(4-Hydroxymethyl-piperidin-1-ylmethyl)-N-[4-methyl-3-(4-methyl-benzylidene-hydrazinocarbonyl)-thiophen-2-yl]-benzamide], the IC50 came to 3.84 µM.

Consider `CCN(CC)CCN(C)Cc1cccc(C(=O)Nc2ccc(OCCCCF)cc2C(=O)N/N=C/c2ccc(C)c(C)c2)c1` [Compound 1059, 3-{[(2-Diethylamino-ethyl)-methyl-amino]-methyl}-N-[2-(3,4-dimethyl-benzylidene-hydrazinocarbonyl)-4-(4-fluoro-butoxy)-phenyl]-benzamide], for which the 50% inhibitory concentration (IC50) amounted to 0.43 µM.

With `Cc1ccc(/C=N/NC(=O)c2c(NC(=O)c3cccc(CN4CCC(N5CCCCC5)CC4)c3)sc3c2CCCC3)cc1C` [Compound 615, 3-[1,4′]Bipiperidinyl-1′-ylmethyl-N-[3-(3,4-dimethyl-benzylidene-hydrazinocarbonyl)-4,5,6,7-tetrahydro-benzo[b]thiophen-2-yl]-benzamide], the IC50 was 2.08 µM.

Take `COc1cc(OC)cc(C(=O)Nc2ccccc2C(=O)N/N=C/c2ccc(OC)c(Br)c2)c1` [Compound 99, N-[2-(3-Bromo-4-methoxy-benzylidene-hydrazinocarbonyl)-phenyl]-3,5-dimethoxy-benzamide]: the IC50 is 3.03 µM.

As for `O=C(Nc1ccc(Br)cc1C(=O)N/N=C/c1ccc(F)cc1)c1ccc(CSc2ccncc2)cc1` [Compound 256, N-[4-Bromo-2-(4-fluoro-benzylidene-hydrazinocarbonyl)-phenyl]-4-(pyridin-4-ylsulfanylmethyl)-benzamide], the IC50 was less than 10 µM.

Take `COc1ccc(C(=O)Nc2ccccc2C(=O)N/N=C/c2ccc(Cl)c(C(F)(F)F)c2)cc1` [Compound 90, N-[2-(4-Chloro-3-trifluoromethyl-benzylidene-hydrazinocarbonyl)-phenyl]-4-methoxy-benzamide]: the IC50 worked out at 3.42 µM.

Turning to `O=C(Nc1ccccc1C(=O)N/N=C/c1cccc(F)c1)c1ccccc1` [Compound 226, N-[2-(3-Fluoro-benzylidene-hydrazinocarbonyl)-phenyl]-benzamide], the IC50 worked out at 1.69 µM.

Take `COc1ccc(/C=N/NC(=O)c2cc(N3CCSCC3)ccc2NC(=O)c2cccc(CSCCO)c2)cc1` [Compound 928, 3-(2-Hydroxy-ethylsulfanylmethyl)-N-[2-(4-methoxy-benzylidene-hydrazinocarbonyl)-4-thiomorpholin-4-yl-phenyl]-benzamide]: the IC50 was less than 1 µM.

Take `COc1ccc(C(=O)Nc2ccccc2C(=O)N/N=C/c2ccc(Cl)c(C(F)(F)F)c2)cc1OC` [Compound 41, N-[2-(4-Chloro-3-trifluoromethyl-benzylidene-hydrazinocarbonyl)-phenyl]-3,4-dimethoxy-benzamide]: the IC50 amounted to 2.43 µM.

Turning to `CCOCCN(CCOCC)Cc1ccc(C(=O)Nc2ccc(Br)cc2C(=O)N/N=C/c2cccc(F)c2)cc1` [Compound 737, 4-{[Bis-(2-ethoxy-ethyl)-amino]-methyl}-N-[4-bromo-2-(3-fluoro-benzylidene-hydrazinocarbonyl)-phenyl]-benzamide], the IC50 is 4.24 µM.

`CC(O)CN(Cc1cccc(C(=O)Nc2sccc2C(=O)N/N=C/c2cccc(F)c2)c1)CC(C)O` (stereo not drawn) [Compound 673, 3-{[Bis-(2-hydroxy-propyl)-amino]-methyl}-N-[3-(3-fluoro-benzylidene-hydrazinocarbonyl)-thiophen-2-yl]-benzamide]: the IC50 is 10.1 µM.

As to `COc1ccc(C(=O)Nc2ccccc2C(=O)N/N=C/c2ccc(F)cc2)cc1` [Compound 48, N-[2-(4-Fluoro-benzylidene-hydrazinocarbonyl)-phenyl]-4-methoxy-benzamide], the IC50 worked out at 2.07 µM.

Turning to `COc1ccc(/C=N/NC(=O)c2cc(Br)ccc2NC(=O)c2ccc(CN(CC(C)O)CC(C)O)cc2)cc1` (stereo not drawn) [Compound 722, 4-{[Bis-(2-hydroxy-propyl)-amino]-methyl}-N-[4-bromo-2-(4-methoxy-benzylidene-hydrazinocarbonyl)-phenyl]-benzamide], the IC50 is 12.8 µM.

As to `C=CCOc1ccc(/C=N/NC(=O)c2ccccc2NC(=O)c2ccc(OC)c(OC)c2)cc1` [Compound 52, N-[2-(4-Allyloxy-benzylidene-hydrazinocarbonyl)-phenyl]-3,4-dimethoxy-benzamide], the IC50 turned out to be 10.4 µM.

Consider `Cc1ccc(/C=N/NC(=O)c2cc(Cl)ccc2NC(=O)c2cccc(CN(C)CCO)c2)cc1` [Compound 397, N-[4-Chloro-2-(4-methyl-benzylidene-hydrazinocarbonyl)-phenyl]-3-{[(2-hydroxy-ethyl)-methyl-amino]-methyl}-benzamide], for which the half-maximal inhibitory concentration (IC50) amounted to 9.25 µM.

The same experiment, now with this note: phosphate uptake, oocytes expressing rat NaPi-2b; 300 μM, determined from inhibition curve.
`Cc1ccc(CNNC(=O)c2cc(Cl)ccc2NC(=O)c2cccc(CSc3ccncc3)c2)cc1C` [Compound 366, N-{4-Chloro-2-[N′-(3,4-dimethyl-benzyl)-hydrazinocarbonyl]-phenyl}-3-(pyridin-4-ylsulfanylmethyl)-benzamide] showed an inhibition at 300 µM of 69.9%.

Compound `COc1ccc(C(=O)Nc2ccc(Br)cc2C(=O)N/N=C/c2ccccn2)cc1OC` [Compound 243, N-[4-Bromo-2-(pyridin-2-ylmethylene-hydrazinocarbonyl)-phenyl]-3,4-dimethoxy-benzamide] came in with an inhibition at 300 µM of 50.2%.

The compound `CN(CCCNCc1ccc(C(=O)Nc2ccc(Br)cc2C(=O)N/N=C/c2ccc(Cl)c(C(F)(F)F)c2)cc1)c1ccccc1` [Compound 761, N-[4-Bromo-2-(4-chloro-3-trifluoromethyl-benzylidene-hydrazinocarbonyl)-phenyl]-4-{[3-(methyl-phenyl-amino)-propylamino]-methyl}-benzamide] gave an inhibition at 300 µM of 46.2%.

In the case of `Cc1csc(C(=O)N/N=C/c2cccc(F)c2)c1NC(=O)c1cccc(CN2CCN(CCO)CC2)c1` [Compound 535, N-[2-(3-Fluoro-benzylidene-hydrazinocarbonyl)-4-methyl-thiophen-3-yl]-3-[4-(2-hydroxy-ethyl)-piperazin-1-ylmethyl]-benzamide], testing at 300 µM gave an inhibition of 53%.

As for `Cc1ccc(/C=N/NC(=O)c2cc(OCC(O)CN3CCCCC3)ccc2NC(=O)c2cccc(CN(CC(C)O)CC(C)O)c2)cc1C` (stereo not drawn) [Compound 949, 3-{[Bis-(2-hydroxy-propyl)-amino]-methyl}-N-[2-(3,4-dimethyl-benzylidene-hydrazinocarbonyl)-4-(2-hydroxy-3-piperidin-1-yl-propoxy)-phenyl]-benzamide], the inhibition at 300 µM amounted to 72.6%.

For the origin of these results see patent US8134015B2, “Compound inhibiting in vivo phosphorous transport and medicine containing the same” (Kyowa Hakko Kirin Co., Ltd., priority 2003, dated 2012).
